Reference: patent US8648068B2, “Heterocycloalkyl-containing thienopyrimidines for pharmaceutical compositions” (Boehringer Ingelheim International GmbH, priority 2010, dated 2014)
Counter-ions that a name gives are not always drawn.

Key:
[1] = system: Mnk2 (Mnk2a or Mnk2b) or Mnk1; conditions: cell culture cells transfected with Mnk2 (Mnk2a or Mnk2b) or Mnk1; cited from earlier work
[2] = biological target: T1, human Mnk2a (Homo sapiens, UniProt Q9HBH9); assay: Mnk2a in vitro kinase assay (indirect fluorescence polarization); type: biochemical; conditions: GST-Mnk2a pre-activated with ERK2, 20 μM ATP, 30 μM substrate peptide; read-out: MNK2 IC50
T1 construct: made in house; host or cells: E. coli BL21 (vector pGEX-4T1)
T1 sequence (Q9HBH9 whole entry): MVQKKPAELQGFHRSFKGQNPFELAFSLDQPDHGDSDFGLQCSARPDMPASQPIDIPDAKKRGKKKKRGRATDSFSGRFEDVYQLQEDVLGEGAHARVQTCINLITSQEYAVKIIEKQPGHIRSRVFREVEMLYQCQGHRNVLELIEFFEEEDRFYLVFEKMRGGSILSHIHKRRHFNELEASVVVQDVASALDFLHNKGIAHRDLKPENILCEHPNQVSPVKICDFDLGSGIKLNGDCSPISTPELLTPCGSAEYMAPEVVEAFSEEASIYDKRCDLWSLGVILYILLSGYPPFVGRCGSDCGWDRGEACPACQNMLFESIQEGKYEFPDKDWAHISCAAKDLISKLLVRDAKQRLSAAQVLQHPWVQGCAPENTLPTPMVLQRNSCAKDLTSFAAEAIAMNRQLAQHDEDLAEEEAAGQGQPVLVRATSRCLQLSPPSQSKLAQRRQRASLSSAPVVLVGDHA
Procedure, shortened: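 Indirect competitive fluorescence polarization: kinase-generated phospho-product displaces a fluorophore-labelled phospho-peptide from a phospho-specific antibody. Enzyme is N-terminal GST-Mnk2a from E. coli, activated with pre-activated ERK2 and 50 μM ATP; substrate is an amidated 12-mer peptide around eIF4E Ser209.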

Row | IC50 [2] [nM] | Compound | reduction of phosphorylated eIF4E [1]
1 |  | Nc1ncnc2n[nH]c(Nc3ccc(F)cc3)c12 [CGP57380] | strong reduction
2 | 37 | Cc1c(C(=O)NCC(O)CN(C)C)sc2ncnc(Nc3ccc(F)cc3OC3CCOCC3)c12 (centres unmarked) [Example 256, 4-[4-Fluoro-2-(tetrahydro-pyran-4-yloxy)-phenylamino]-5-methyl-thieno[2,3-d]pyrimidine-6-carboxylic acid (3-dimethylamino-2-hydroxy-propyl)-amide-hydrochloride] | 
3 | 40 | Cc1c(C(=O)NC2CCN(C)C[C@@H]2O)sc2ncnc(Nc3ccc(F)cc3OC3CCOCC3)c12 (stereo partly drawn) [Example 257, 4-[4-Fluoro-2-(tetrahydro-pyran-4-yloxy)-phenylamino]-5-methyl-thieno[2,3-d]pyrimidine-6-carboxylic acid ((S)-3-hydroxy-1-methyl-piperidin-4-yl)-amide-hydrochloride] | 
4 | 20 | Cc1c(C(=O)NCCCN2CCCC2)sc2ncnc(Nc3ccc(F)cc3O[C@@H]3CCCOC3)c12 [Example 258, 4-{4-Fluoro-2-[(R)-(tetrahydro-pyran-3-yl)oxy]-phenylamino}-5-methyl-thieno[2,3-d]pyrimidine-6-carboxylic acid (3-pyrrolidin-1-yl-propyl)-amide] | 
5 | 38 | Cc1c(C(=O)NC2CCN(C)CC2)sc2ncnc(Nc3ccc(F)cc3O[C@@H]3CCCOC3)c12 [Example 259, 4-{4-Fluoro-2-[(R)-(tetrahydro-pyran-3-yl)oxy]-phenylamino}-5-methyl-thieno[2,3-d]pyrimidine-6-carboxylic acid (1-methyl-piperidin-4-yl)-amide] | 
6 | 39 | Cc1c(C(=O)NCCO)sc2ncnc(Nc3cccnc3O[C@@H]3CCCOC3)c12 [Example 260, 5-Methyl-4-{2-[(R)-(tetrahydro-pyran-3-yl)oxy]-pyridin-3-ylamino}-thieno[2,3-d]pyrimidine-6-carboxylic acid (2-hydroxy-ethyl)-amide] | 
7 | 46 | CONC(=O)c1sc2ncnc(Nc3cccnc3O[C@@H]3CCCOC3)c2c1C [Example 261] | 
8 | 53 | Cc1c(C(=O)NCCCN2CCCC2)sc2ncnc(Nc3cccnc3O[C@@H]3CCCOC3)c12 [Example 262] | 
9 | 115 | Cc1c(C(=O)NC2CCN(C)CC2)sc2ncnc(Nc3cccnc3O[C@@H]3CCCOC3)c12 [Example 263] | 
10 | 23 | Cc1c(C(=O)NCC#CCN(C)C)sc2ncnc(Nc3cccnc3O[C@@H]3CCCOC3)c12 [Example 264] | 
11 | 34 | Cc1c(C(=O)NCCCN(C)C)sc2ncnc(Nc3cccnc3O[C@@H]3CCCOC3)c12 [Example 265] | 
12 | 25 | Cc1c(C(=O)NCC#N)sc2ncnc(Nc3cccnc3O[C@@H]3CCCOC3)c12 [Example 266] | 
13 | 36 | Cc1c(C(N)=O)sc2ncnc(Nc3cccnc3O[C@@H]3CCOC3)c12 [Example 267, 5-Methyl-4-{2-[(R)-(tetrahydro-furan-3-yl)oxy]-pyridin-3-ylamino}-thieno[2,3-d]pyrimidine-6-carboxylic acid amide] | 
14 | 100 | Cc1c(C(=O)NCCCN(C)C)sc2ncnc(Nc3cccnc3O[C@@H]3CCOC3)c12 [Example 268] | 
15 | 34 | Cc1c(C(N)=O)sc2ncnc(Nc3cccnc3O[C@H]3CCOC3)c12 [Example 269, 5-Methyl-4-{2-[(S)-(tetrahydro-furan-3-yl)oxy]-pyridin-3-ylamino}-thieno[2,3-d]pyrimidine-6-carboxylic acid amide] | 
16 | 298 | Cc1c(C(=O)NCCCN(C)C)sc2ncnc(Nc3cccnc3O[C@H]3CCOC3)c12 [Example 270, 5-Methyl-4-{2-[(S)-(tetrahydro-furan-3-yl)oxy]-pyridin-3-ylamino}-thieno[2,3-d]pyrimidine-6-carboxylic acid (3-dimethylamino-propyl)-amide] | 
17 | 40 | Cc1c(C(=O)NC2CCN(C)CC2)sc2ncnc(Nc3ccc(F)cc3O[C@H]3CCOC3)c12 [Example 271, 4-{4-Fluoro-2-[(S)-(tetrahydro-furan-3-yl)oxy]-phenylamino}-5-methyl-thieno[2,3-d]pyrimidine-6-carboxylic acid (1-methyl-piperidin-4-yl)-amide] | 
18 | 40 | Cc1c(C(=O)NC2CCCN(C(=O)OC(C)(C)C)CC2)sc2ncnc(Nc3ccc(F)cc3O[C@H]3CCOC3)c12 (stereo partly drawn) [Example 272, 4-[(4-{4-Fluoro-2-[(S)-(tetrahydro-furan-3-yl)oxy]-phenylamino}-5-methyl-thieno[2,3-d]pyrimidine-6-carbonyl)-amino]-azepane-1-carboxylic acid tert-butyl ester] | 
19 | 49 | Cc1c(C(=O)NC2CCCNCC2)sc2ncnc(Nc3ccc(F)cc3O[C@H]3CCOC3)c12 (stereo partly drawn) [Example 273, 4-{4-Fluoro-2-[(S)-(tetrahydro-furan-3-yl)oxy]-phenylamino}-5-methyl-thieno[2,3-d]pyrimidine-6-carboxylic acid azepan-4-ylamide trifluoroacetate] | 
20 | 19 | Cc1c(C(=O)NCC#CCN(C)C)sc2ncnc(Nc3ccc(F)cc3O[C@@H]3CCOC3)c12 [Example 274] | 
21 | 77 | CSCCCNC(=O)c1sc2ncnc(Nc3cccnc3OC3CCOCC3)c2c1C [Example 279] | 
22 | 40 | Cc1c(C(=O)NCC[S+](C)[O-])sc2ncnc(Nc3cccnc3OC3CCOCC3)c12 (centres unmarked) [Example 280] | 
23 | 42 | Cc1c(C(=O)NC2CCN(C)CC2)sc2ncnc(Nc3cccnc3OC3CCOCC3)c12 [Example 281] | 
